{"source": "paper PMC10630888", "about": "“Nuclear ERK1/2 signaling potentiation enhances neuroprotection and cognition via Importinα1/KPNA2” (EMBO Molecular Medicine, 2023)", "system": "cleaved caspase-3", "experiment": "Cleaved caspase-3 in dentate gyrus of Tg2576 mice", "format": "in vivo, mouse", "conditions": "for cleaved caspase-3 in dentate gyrus (Fig 5 panel l): individual animals", "note": "Where “and” joins values, the source holds several entries; their conditions need not be identical. Equal entries are not always repeated.", "data": [{"sequence": "GRKKRRQRRRPPQGGGGGEPRRTEGVGPGVPGEVEMVKGQPFDV [RB5, six D-amino acids, acetylated N-terminus]", "values": [{"measurement": "Preapoptotic phenotype measured by caspase-3", "setting": "Tg2576 mice, 7 months old, 20 mg/kg i.p. for 7 days", "value": "significantly reduced the preapoptotic phenotype"}, {"measurement": "cleaved caspase-3 in dentate gyrus (Fig 5 panel l)", "setting": "Tg2576 mice", "value": "0.77 and 0.91 and 0.62 and 1.34 and 0.79 and 1.19 and 1.3"}, {"measurement": "cleaved caspase-3 in dentate gyrus (Fig 5 panel l)", "setting": "WT mice", "value": "0.76 and 0.9 and 0.39 and 0.92 and 0.68 and 0.62 and 0.56 and 0.58 and 0.59"}]}]}
